This is an account of results in US20240316022A1 (TYRA BIOSCIENCES, INC., priority 2021, published 2024).

Assay in all cases: Kinase binding assay (kinase-tagged T7 phage, qPCR), Kd
(In qPCR the cycle at which signal appears reflects the starting amount.)

In experiment [1] the target is T1, FGFR4 (Homo sapiens, UniProt P22455).
T1 construct: made in house; host or cells: E. coli derived from BL21, infected with T7 phage
As to conditions: read-out: FGFR4 (Kd nM).

Experiment [2] deals with T2, FGFR3 (Homo sapiens, UniProt P22607).
T2 construct: made in house; host or cells: E. coli derived from BL21, infected with T7 phage
T2 sequence (P22607 23-806): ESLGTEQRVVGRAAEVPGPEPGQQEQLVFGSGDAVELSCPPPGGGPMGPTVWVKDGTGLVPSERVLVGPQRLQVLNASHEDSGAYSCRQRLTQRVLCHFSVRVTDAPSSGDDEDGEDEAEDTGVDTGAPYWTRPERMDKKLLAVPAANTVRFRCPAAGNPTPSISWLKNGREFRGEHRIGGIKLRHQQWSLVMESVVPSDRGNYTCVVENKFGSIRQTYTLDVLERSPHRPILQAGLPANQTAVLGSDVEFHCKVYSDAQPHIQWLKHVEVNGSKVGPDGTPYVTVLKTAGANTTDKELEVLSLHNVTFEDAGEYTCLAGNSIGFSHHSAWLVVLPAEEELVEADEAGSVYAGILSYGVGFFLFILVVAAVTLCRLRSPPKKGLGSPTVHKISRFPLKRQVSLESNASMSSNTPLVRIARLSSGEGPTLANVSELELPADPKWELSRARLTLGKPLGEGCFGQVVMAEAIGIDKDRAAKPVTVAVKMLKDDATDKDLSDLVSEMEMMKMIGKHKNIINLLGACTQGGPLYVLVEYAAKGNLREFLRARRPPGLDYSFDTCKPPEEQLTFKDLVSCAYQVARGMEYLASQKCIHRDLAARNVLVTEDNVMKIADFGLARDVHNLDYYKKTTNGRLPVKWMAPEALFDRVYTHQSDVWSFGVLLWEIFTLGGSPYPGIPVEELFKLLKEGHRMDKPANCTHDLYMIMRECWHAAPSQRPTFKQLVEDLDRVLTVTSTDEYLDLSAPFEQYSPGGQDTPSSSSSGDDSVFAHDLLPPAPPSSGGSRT
The settings on record: read-out: FGFR3 (Kd nM).

Experiment [3] addresses T3, FGFR1 (Homo sapiens, UniProt P11362).
T3 construct: made in house; host or cells: E. coli derived from BL21, infected with T7 phage
The settings on record: read-out: FGFR1 (Kd nM).

The target in experiment [4] is T4, FGFR2 (Homo sapiens, UniProt P21802).
T4 construct: made in house; host or cells: E. coli derived from BL21, infected with T7 phage
T4 sequence (P21802 22-821): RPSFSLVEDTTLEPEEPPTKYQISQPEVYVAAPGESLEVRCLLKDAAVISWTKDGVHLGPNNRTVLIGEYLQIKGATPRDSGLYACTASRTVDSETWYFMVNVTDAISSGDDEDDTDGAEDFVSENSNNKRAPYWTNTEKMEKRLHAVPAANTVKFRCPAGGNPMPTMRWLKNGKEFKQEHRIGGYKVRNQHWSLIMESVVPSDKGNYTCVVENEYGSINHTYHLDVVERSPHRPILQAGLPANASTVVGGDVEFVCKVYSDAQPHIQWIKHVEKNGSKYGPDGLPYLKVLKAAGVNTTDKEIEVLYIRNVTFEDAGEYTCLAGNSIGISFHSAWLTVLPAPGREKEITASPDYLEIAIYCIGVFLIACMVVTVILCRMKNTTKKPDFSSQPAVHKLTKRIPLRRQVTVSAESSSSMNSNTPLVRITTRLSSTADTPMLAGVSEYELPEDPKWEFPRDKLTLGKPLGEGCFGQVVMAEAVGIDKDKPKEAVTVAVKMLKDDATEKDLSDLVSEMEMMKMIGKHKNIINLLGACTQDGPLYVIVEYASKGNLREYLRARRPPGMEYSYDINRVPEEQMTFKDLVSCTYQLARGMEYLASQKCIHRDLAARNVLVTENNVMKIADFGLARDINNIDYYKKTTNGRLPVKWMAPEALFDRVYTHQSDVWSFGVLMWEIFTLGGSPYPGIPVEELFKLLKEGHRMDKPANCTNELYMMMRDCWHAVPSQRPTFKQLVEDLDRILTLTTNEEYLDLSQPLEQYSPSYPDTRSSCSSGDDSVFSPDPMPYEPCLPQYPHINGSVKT
The settings on record: read-out: FGFR2 (Kd nM).

Structures are written as SMILES.

T1 sequence (P22455 22-802): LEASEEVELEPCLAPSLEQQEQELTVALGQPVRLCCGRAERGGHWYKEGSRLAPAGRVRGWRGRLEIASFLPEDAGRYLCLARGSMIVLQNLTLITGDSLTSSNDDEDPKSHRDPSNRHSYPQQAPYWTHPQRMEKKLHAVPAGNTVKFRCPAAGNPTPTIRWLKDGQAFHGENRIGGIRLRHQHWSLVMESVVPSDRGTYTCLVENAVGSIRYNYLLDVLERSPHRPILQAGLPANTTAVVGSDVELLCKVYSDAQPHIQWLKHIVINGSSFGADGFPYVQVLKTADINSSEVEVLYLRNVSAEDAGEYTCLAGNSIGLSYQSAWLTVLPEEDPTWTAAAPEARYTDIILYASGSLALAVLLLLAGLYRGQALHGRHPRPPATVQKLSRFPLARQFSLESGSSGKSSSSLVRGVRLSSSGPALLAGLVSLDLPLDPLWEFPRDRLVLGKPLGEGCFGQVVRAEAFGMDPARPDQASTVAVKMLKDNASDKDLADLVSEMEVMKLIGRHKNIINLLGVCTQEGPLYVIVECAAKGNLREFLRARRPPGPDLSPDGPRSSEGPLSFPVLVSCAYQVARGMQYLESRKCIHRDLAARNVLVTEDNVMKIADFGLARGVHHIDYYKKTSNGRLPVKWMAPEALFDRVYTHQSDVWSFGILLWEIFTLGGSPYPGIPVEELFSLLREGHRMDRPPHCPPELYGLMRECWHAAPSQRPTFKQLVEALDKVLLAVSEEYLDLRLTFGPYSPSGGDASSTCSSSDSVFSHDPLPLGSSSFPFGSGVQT
T3 sequence (P11362 22-822): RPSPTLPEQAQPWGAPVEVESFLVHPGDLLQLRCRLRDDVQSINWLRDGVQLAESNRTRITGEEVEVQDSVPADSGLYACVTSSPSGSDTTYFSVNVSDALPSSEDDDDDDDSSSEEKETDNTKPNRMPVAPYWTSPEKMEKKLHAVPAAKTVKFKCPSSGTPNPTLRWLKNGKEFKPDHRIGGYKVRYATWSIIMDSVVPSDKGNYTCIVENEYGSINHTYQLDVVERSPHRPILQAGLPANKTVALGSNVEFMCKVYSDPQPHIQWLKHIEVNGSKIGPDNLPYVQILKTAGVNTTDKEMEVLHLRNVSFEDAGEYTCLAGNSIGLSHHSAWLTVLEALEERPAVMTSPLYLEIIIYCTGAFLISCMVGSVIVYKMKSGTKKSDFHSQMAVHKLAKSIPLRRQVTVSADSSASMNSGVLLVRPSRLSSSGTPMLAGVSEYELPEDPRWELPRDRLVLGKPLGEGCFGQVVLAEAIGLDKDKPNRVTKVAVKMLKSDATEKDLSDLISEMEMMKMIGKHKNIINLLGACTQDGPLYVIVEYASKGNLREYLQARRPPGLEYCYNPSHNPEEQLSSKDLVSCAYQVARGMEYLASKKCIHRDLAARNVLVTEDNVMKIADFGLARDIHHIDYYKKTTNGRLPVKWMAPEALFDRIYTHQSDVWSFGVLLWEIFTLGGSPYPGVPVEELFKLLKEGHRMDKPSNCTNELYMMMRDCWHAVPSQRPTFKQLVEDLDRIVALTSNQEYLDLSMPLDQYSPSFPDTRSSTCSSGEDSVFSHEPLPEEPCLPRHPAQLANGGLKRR

As a reminder, the Kd is the constant that tells how readily two partners part at equilibrium. As for `COc1cc(-c2n[nH]c3ccc(O[C@H](C)c4c(C)cnnc4C)cc23)cc2c1OC1(CCN(C(C)C)CC1)OC2` [Example 125, (R)-6-(5-(1-(3,5-dimethylpyridazin-4-yl)ethoxy)-1H-indazol-3-yl)-1′-isopropyl-8-methoxy-4H-spiro[benzo[d][1,3]dioxine-2,4′-piperidine]], the Kd in experiment [1], in experiment [2], in experiment [3] and in experiment [4] was 0.1 to 100 nM in each case.

Consider `COc1cc(-c2n[nH]c3ccc(O[C@H](C)c4c(Cl)cncc4Cl)cc23)cc(C#N)c1OC1CCN(C(C)C)CC1` [Example 126, 5-[5-[(1R)-1-(3,5-dichloro-4-pyridyl)ethoxy]-1H-indazol-3-yl]-2-[(1-isopropyl-4-piperidyl)oxy]-3-methoxy-benzonitrile], for which the Kd is 0.1 to 100 nM in experiment [1], 250 to 1000 nM in experiment [2], 250 to 1000 nM in experiment [3] and > 1000 nM in experiment [4].

Turning to `Cc1cnnc(C)c1[C@@H](C)Oc1ccc2[nH]nc(-c3cnc(O[C@H]4CCOC4)c(C#N)c3)c2c1` [Example 127, 5-(5-((R)-1-(3,5-dimethylpyridazin-4-yl)ethoxy)-1H-indazol-3-yl)-2-(((S)-tetrahydrofuran-3-yl)oxy)nicotinonitrile], the Kd in experiment [1] is 0.1 to 100 nM; in experiment [2], 0.1 to 100 nM; in experiment [3], 100 to 250 nM; in experiment [4], 0.1 to 100 nM.

Take `Cc1cnnc(C)c1[C@@H](C)Oc1ccc2[nH]nc(-c3cnc(O[C@@H]4CCOC4)c(C#N)c3)c2c1` [Example 128, 5-(5-((R)-1-(3,5-dimethylpyridazin-4-yl)ethoxy)-1H-indazol-3-yl)-2-(((R)-tetrahydrofuran-3-yl)oxy)nicotinonitrile]: the Kd in experiment [1] was in the range of 0.1 to 100 nM; in experiment [2], 0.1 to 100 nM; in experiment [3], 100 to 250 nM; in experiment [4], 100 to 250 nM.

On to `C[C@@H](Oc1ccc2[nH]nc(-c3cnc(N[C@H]4CCOC4)c(C#N)c3)c2c1)c1c(Cl)cncc1Cl` [Example 129, 5-(5-((R)-1-(3,5-dichloropyridin-4-yl)ethoxy)-1H-indazol-3-yl)-2-(((S)-tetrahydrofuran-3-yl)amino)nicotinonitrile], for which the Kd in experiment [1], in experiment [2], in experiment [3] and in experiment [4] was 0.1 to 100 nM throughout.

On to `C[C@@H](Oc1ccc2[nH]nc(-c3cnc(N[C@@H]4CCOC4)c(C#N)c3)c2c1)c1c(Cl)cncc1Cl` [Example 130, 5-(5-((R)-1-(3,5-dichloropyridin-4-yl)ethoxy)-1H-indazol-3-yl)-2-(((R)-tetrahydrofuran-3-yl)amino)nicotinonitrile], for which the Kd in experiment [1], in experiment [2], in experiment [3] and in experiment [4] was 0.1 to 100 nM each time.

For `COc1cc2[nH]nc(-c3cnc(N(C)C)c(C#N)c3)c2cc1O[C@H](C)c1c(Cl)cncc1Cl` [Example 131, 5-[5-[(1R)-1-(3,5-dichloro-4-pyridyl)ethoxy]-6-methoxy-1H-indazol-3-yl]-2-(dimethylamino)pyridine-3-carbonitrile], the Kd in experiment [1], in experiment [2], in experiment [3] and in experiment [4] was 0.1 to 100 nM each time.

As for `C[C@@H](Oc1ccc2[nH]nc(-c3cnc(NC4CCOCC4)c(C#N)c3)c2c1)c1c(Cl)cncc1Cl` [Example 132, (R)-5-(5-(1-(3,5-dichloropyridin-4-yl)ethoxy)-1H-indazol-3-yl)-2-((tetrahydro-2H-pyran-4-yl)amino)nicotinonitrile], the Kd in experiment [1], in experiment [2], in experiment [3] and in experiment [4] was 0.1 to 100 nM in each case.

With `C[C@@H](Oc1ccc2[nH]nc(-c3cnc(O[C@H]4CCOC4)c(C#N)c3)c2c1)c1c(Cl)cncc1Cl` [Example 133, 5-(5-((R)-1-(3,5-dichloropyridin-4-yl)ethoxy)-1H-indazol-3-yl)-2-(((S)-tetrahydrofuran-3-yl)oxy)nicotinonitrile], the Kd lay within 0.1 to 100 nM in experiment [1], 0.1 to 100 nM in experiment [2], 100 to 250 nM in experiment [3] and 0.1 to 100 nM in experiment [4].

On to `C[C@@H](Oc1ccc2[nH]nc(-c3cnc(O[C@@H]4CCOC4)c(C#N)c3)c2c1)c1c(Cl)cncc1Cl` [Example 134, 5-(5-((R)-1-(3,5-dichloropyridin-4-yl)ethoxy)-1H-indazol-3-yl)-2-(((R)-tetrahydrofuran-3-yl)oxy)nicotinonitrile], for which the Kd in experiment [1] was 0.1 to 100 nM; in experiment [2] it was 0.1 to 100 nM; in experiment [3], 100 to 250 nM; in experiment [4], 0.1 to 100 nM.

On to `Cc1cc2[nH]nc(-c3cnc(O[C@@H]4CCOC4)c(C#N)c3)c2cc1O[C@H](C)c1c(Cl)cncc1Cl` [Example 135, 5-(5-((R)-1-(3,5-dichloropyridin-4-yl)ethoxy)-6-methyl-1H-indazol-3-yl)-2-(((R)-tetrahydrofuran-3-yl)oxy)nicotinonitrile], for which the dissociation constant Kd in experiment [1], in experiment [2], in experiment [3] and in experiment [4] was 0.1 to 100 nM throughout.

On to `COc1cc2[nH]nc(-c3cnc(O[C@@H]4CCOC4)c(C#N)c3)c2cc1O[C@H](C)c1c(Cl)cncc1Cl` [Example 136, 5-(5-((R)-1-(3,5-dichloropyridin-4-yl)ethoxy)-6-methoxy-1H-indazol-3-yl)-2-(((R)-tetrahydrofuran-3-yl)oxy)nicotinonitrile], for which the Kd in experiment [1], in experiment [2], in experiment [3] and in experiment [4] was 0.1 to 100 nM each time.

Take `C[C@@H](Oc1cc2c(-c3cnc(O[C@@H]4CCOC4)c(C#N)c3)n[nH]c2cc1F)c1c(Cl)cncc1Cl` [Example 138, 5-(5-((R)-1-(3,5-dichloropyridin-4-yl)ethoxy)-6-fluoro-1H-indazol-3-yl)-2-(((R)-tetrahydrofuran-3-yl)oxy)nicotinonitrile]: the Kd in experiment [1] lay in the range of 0.1 to 100 nM; in experiment [2], 0.1 to 100 nM; in experiment [3] it was 100 to 250 nM; in experiment [4], 250 to 1000 nM.

As for `C[C@@H](Oc1ccc2[nH]nc(-c3cnc4c(c3)N(CC(F)(F)F)CCO4)c2c1)c1c(Cl)cncc1Cl` [Example 139, (R)-7-(5-(1-(3,5-dichloropyridin-4-yl)ethoxy)-1H-indazol-3-yl)-1-(2,2,2-trifluoroethyl)-2,3-dihydro-1H-pyrido[2,3-b][1,4]oxazine 2,2,2-trifluoroacetate], the Kd in experiment [1], in experiment [2], in experiment [3] and in experiment [4] was > 1000 nM in each case.

As for `COc1cc2[nH]nc(-c3cnc4c(c3)N(S(C)(=O)=O)CCO4)c2cc1O[C@H](C)c1c(Cl)cncc1Cl` [Example 140, 7-[5-[(1R)-1-(3,5-dichloro-4-pyridyl)ethoxy]-6-methoxy-1H-indazol-3-yl]-1-methylsulfonyl-2,3-dihydropyrido[2,3-b][1,4]oxazine], the Kd in experiment [1] lay within 0.1 to 100 nM; in experiment [2] it was 100 to 250 nM; in experiment [3], 250 to 1000 nM; in experiment [4], 250 to 1000 nM.

Turning to `CC(C)N1CCOc2ncc(-c3n[nH]c4ccc(O[C@H](C)c5c(Cl)cncc5Cl)cc34)cc21` [Example 141, (R)-7-(5-(1-(3,5-dichloropyridin-4-yl)ethoxy)-1H-indazol-3-yl)-1-isopropyl-2,3-dihydro-1H-pyrido[2,3-b][1,4]oxazine], the Kd in experiment [1] is 0.1 to 100 nM; in experiment [2], > 1000 nM; in experiment [3], > 1000 nM; in experiment [4] it was > 1000 nM.

On to `C[C@@H](Oc1ccc2[nH]nc(-c3cnc4c(c3)N(CC(F)F)CCO4)c2c1)c1c(Cl)cncc1Cl` [Example 142, (R)-7-(5-(1-(3,5-dichloropyridin-4-yl)ethoxy)-1H-indazol-3-yl)-1-(2,2-difluoroethyl)-2,3-dihydro-1H-pyrido[2,3-b][1,4]oxazine], for which the Kd in experiment [1] was 250 to 1000 nM; in experiment [2], > 1000 nM; in experiment [3], > 1000 nM; in experiment [4], > 1000 nM.

In the case of `Cc1ncc(Cl)c([C@@H](C)Oc2cc3c(-c4cnc5c(c4)N(S(C)(=O)=O)CCO5)n[nH]c3cc2Cl)c1Cl` [Example 143, 7-[6-chloro-5-[(1R)-1-(3,5-dichloro-2-methyl-4-pyridyl)ethoxy]-1H-indazol-3-yl]-1-methylsulfonyl-2,3-dihydropyrido[2,3-b][1,4]oxazine], the Kd was 100 to 250 nM in experiment [1], 100 to 250 nM in experiment [2], > 1000 nM in experiment [3] and > 1000 nM in experiment [4].

As for `CCS(=O)(=O)N1CCOc2ncc(-c3n[nH]c4ccc(O[C@H](C)c5c(Cl)cncc5Cl)cc34)cc21` [Example 144], the Kd in experiment [1] is 0.1 to 100 nM; in experiment [2], > 1000 nM; in experiment [3], > 1000 nM; in experiment [4] it was > 1000 nM.

Turning to `C[C@@H](Oc1cc2c(-c3cnc4c(c3)N(S(C)(=O)=O)CCO4)n[nH]c2cc1Cl)c1c(Cl)cncc1Cl` [Example 145, 7-[6-chloro-5-[(1R)-1-(3,5-dichloro-4-pyridyl)ethoxy]-1H-indazol-3-yl]-1-methylsulfonyl-2,3-dihydropyrido[2,3-b][1,4]oxazine], the Kd in experiment [1] is 0.1 to 100 nM; in experiment [2], > 1000 nM; in experiment [3] it was > 1000 nM; in experiment [4] it was > 1000 nM.

On to `COc1cc2[nH]nc(-c3cnc4c(c3)NCCO4)c2cc1O[C@H](C)c1c(Cl)cncc1Cl` [Example 146], for which the dissociation constant (Kd) in experiment [1], in experiment [2], in experiment [3] and in experiment [4] was 0.1 to 100 nM throughout.

`COc1cc2[nH]nc(-c3ccc(N(C)C)nc3)c2cc1O[C@H](C)c1c(Cl)cnc(C)c1Cl` [Example 149, 5-[5-[(1R)-1-(3,5-dichloro-2-methyl-4-pyridyl)ethoxy]-6-methoxy-1H-indazol-3-yl]-N,N-dimethyl-pyridin-2-amine]: the Kd in experiment [1], in experiment [2], in experiment [3] and in experiment [4] was 0.1 to 100 nM throughout.
